Here are results for one compound from patent publication US20050217538A1, “Modified Calcium Phosphate Bone Cement” (TECHNISCHE UNIVERSITAT DRESDEN, priority 2004, published 2005).

The series can be described thus: pH, calcium and phosphate contents of the solution surrounding the cement during the setting process. In kind it is physicochemical. How it is done: The ion concentrations of the solutions surrounding the cement were determined in that during the setting process samples of the solution were taken regularly and analyzed with regard to pH value (glass electrode), calcium contents and phosphate contents (photometric method), in accordance with the procedure described in connection with Example 2. No deviations into cell and tissue damaging pH ranges (pH<7 and pH>8) were measured. The determined calcium and phosphate ion concentrations were also at a level that is well tolerated by cells and tissue.
The ion concentrations of the solution surrounding the cement were determined in that during the setting process samples of the solution were taken regularly and analyzed with regard to pH value (glass electrode), calcium contents and phosphate contents (photometric method). […]
The ion concentration of the solution surrounding the bone cement was determined in that during the setting process regularly samples of the solution were taken and analyzed with regard to pH value (glass electrode), calcium contents and phosphate contents (photometric method). […] The determined calcium and phosphate ion concentrations were also at a level that is well tolerated by cells and tissue. […]

On to `Cc1ncc(C[n+]2csc(CCO[P@](=O)(O)OP(=O)(O)O)c2C)c(N)n1` [Thiamine pyrophosphate, thiamine pyrophosphate], for which the “calcium concentration of the surrounding medium” value is listed as “approximately 2.5 mmol/l”.
